Measurements: US11993575B1, “Ethyl [4,4-bis(4-bromophenyl)-2,5-dioxoimidazolidin-1-yl]acetate as an antimicrobial compound” (KING FAISAL UNIVERSITY, priority 2023, dated 2024)

Assays:
Assay type in all cases: cell-based
Conditions in all cases: after 10, 20, 40 and 60 minutes at all dilutions 1:100, 1:200, 1:400, 1:800
Staphylococcus aureus = test: Antimicrobial testing by agar dilution, Staphylococcus aureus
Protocol: (§1) The antimicrobial properties of the ethyl [4,4-bis(4-bromophenyl)-2,5-dioxoimidazolidin-1-yl]acetate was studied by the method of agar dilution. Test solutions of each compound was prepared in concentration of 1% using dimethylformamide as a solvent then they are diluted in physiological solution to obtain the final experimental dilutions 1:100, 1:200, 1:400, 1:800. The effect of these substances are compared with furacillin in a controllable study. The testing microbes used were gram positive bacteria Staphylococcus aureus, gram negative bacteria Escherichia coli, Pseudomonas aeruginosa and Candida albicans fungi were taken. The experiments used for this survey were meat-pentonlu agar (EPA) for cultivation of bacteria and Saburo environment for fungi. Each experiment used 1 ml of test solution on each plate 500 min. Add 2 drops of emulsified with microbes feel. All experimental samples were taken from the agar after 10, 20, 40, 60 minutes in the environment on the basis of Patrk planted. Bacteria were cultivated at a temperature of 37° C. for 1 day and the mushroom was kept in a thermostat for […] at a temperature of 28° C. Then the results were checked.

Escherichia coli = test: Antimicrobial testing by agar dilution, Escherichia coli
Protocol: as §1

Pseudomonas aeruginosa = test: Antimicrobial testing by agar dilution, Pseudomonas aeruginosa
Protocol: as §1

Candida albicans = test: Antimicrobial testing by agar dilution, Candida albicans
Protocol: as §1

Measured: inhibition activity

CCOC(=O)CN1C(=O)NC(c2ccc(Br)cc2)(c2ccc(Br)cc2)C1=O [ethyl [4,4-bis(4-bromophenyl)-2,5-dioxoimidazolidin-1-yl]acetate]
higher inhibition activity: all assays above
